# Data from US5436137A, “DNA sequence which encodes a peptide capable of promoting acrosome reaction” (Oregon Regional Primate Research Center, priority 1993, dated 1995).
# How the values were obtained:
# human sperm = assay: acrosome reaction in capacitated human sperm (acrosome specific monoclonal antibody, FITC fluorescence); format: cell-based; settings: bombesin at a concentration as low as 5 nM, added after overnight capacitation, FIG. 5
# Procedure: (§1) To measure the effects of bombesin on the acrosome reaction, capacitation was conducted in the presence or absence of bombesin. After incubation, samples of sperm were removed to determine the percentage of sperm which had undergone the acrosome reaction as measured with an acrosome specific monoclonal antibody and FITC fluorescence [see Wolf, D. P. Am. J. Reprod. Immunol. 20:106-113 (1989), which is hereby incorporated by reference].
# For human sperm, capacitation was achieved by overnight incubation of sperm in balanced salt and 0.3% bovine serum albumin, after which bombesin was added to induce the acrosome reaction.
# monkey sperm = assay: acrosome reaction in capacitated monkey sperm (acrosome specific monoclonal antibody, FITC fluorescence); format: cell-based; settings: bombesin at a concentration as low as 5 nM, present during 60 minutes capacitation, FIG. 5
# Procedure: For monkeys, sperm was collected, washed twice in balanced salts, resuspended in lactate/bicarbonate and dibutyryl cAMP, and then incubated for 60 minutes. […] See Wolf, D. P. et al. Mol. Reprod. Dev. 27:261-280 (1990); Lanzendorf, S. E. et al. Mol. Reprod. Dev. 25:61-66 (1990); and Wolf D. P. et al. Biol. Reprod. 41:335-346 (1989). All of these three publications are hereby incorporated by reference.
# as §1
smiles,measurement,setting,value
CSCC[C@H](NC(=O)[C@H](CC(C)C)NC(=O)[C@H](Cc1cnc[nH]1)NC(=O)CNC(=O)[C@@H](NC(=O)[C@H](C)NC(=O)[C@H](Cc1c[nH]c2ccccc12)NC(=O)[C@H](CCC(N)=O)NC(=O)[C@H](CC(N)=O)NC(=O)CNC(=O)[C@H](CC(C)C)NC(=O)[C@H](CCCN=C(N)N)NC(=O)[C@H](CCC(N)=O)NC(=O)[C@@H]1CCC(=O)N1)C(C)C)C(N)=O [bombesin],increase in the acrosome reaction,human sperm,2 fold
same,increase in the acrosome reaction,monkey sperm,2 fold
